Measured values: patent EP0414895A1, “OROTATE OF $g(a)-AMINO-$g(b)-PHENYL-BUTYRIC ACID” (NAUCHNO-PROIZVODSTVENNOE OBIEDINENIE "BIOLAR", priority 1989, dated 1990)

What was measured:
Assay type in all cases: in vivo
Mäuse [1] = experiment: Hypoxia in barochamber (11000 m), survival
Description: Nach einer der Methoden wurden die Mäuse in der Barokammer untergebracht, die für die Höhe von II000 m über dem Meeresspiegel gehoben wurde. Die Hebung wurde mit einer Geschwindigkeit von 50 m/s verwirklicht. Der atmosphärische Tiefdruck wurde mit Hilfe der elektrischen Vakuumpumpe geschaffen.
Die beanspruchte Verbindung, Natriumoxybutyrat und Pyrazetam wurden 60 min vor dem Versuch enteral eingeführt. Der Schutzeffekt wurde nach der Überlebensdauer eingeschätzt. Die Angaben sind in Tabelle I0 angeführt.

Mäuse [2] = experiment: Hemic hypoxia by intraperitoneal Natriumnitrit, survival; settings: Natriumnitrit 200 mg/kg i.p. 15 min after compound
Description: Die gemische Hypoxie wurde durch die intraperitoneale und subkutane Verabreichung von Natriumnitrit in einer Dosis von 200 mg/kg den Gruppen zu I0 […] I5 min nach der Einführung der Prüfverbindungen erzeugt. Die Angaben sind in der Tabelle I2 (bei der intraperitonealen Einführung von Natriumnitrit) und Tabelle I3 (bei der subkutanen Einführung von Natriumnitrit) angeführt.

Ratten [3] = experiment: Natriumäthaminal intoxication, sleep duration, rats; settings: 500 mg/kg single + Natriumäthaminal 100 mg/kg i.p.
Description: Ausserdem wurde die Wirkung der beanspruchten Verbindung auf die durch Natriumäthaminal erzeugte Intoxikation untersucht. Die Versuche wurden an männlichen Mäusen und Ratten in Gruppen zu 8 bis I0 Tieren angestellt. Natriumäthaminal wurde intraperitoneal in einner Dosis von I00 mg/kg I5 min nach der enteralen Verabreichung der beanspruchten Verbindung oder der Kontrollarzneimittel eingeführt. Es wurde die einmalige und chronische Einwirkung (während I2 bis I4 Tage einmal täglich) von der neuen Verbindung, γ -Amino- β - -phenylbuttersäurehydrochlorid und Pyrazetam untersucht. Es wurde die Dauer der Seitenlage - des Schlafs der Tiere bestimmt. Die Ergebnisse dieser Untersuchung sind in Tabelle 23 (für Mäuse) und 24 (für Ratten) angeführt.

Mäuse [4] = experiment: Phenamin-induced hypermotility in actometer; settings: 500 mg/kg + Phenamin 5 mg/kg i.p. 10 min later
Description: Eis wurde die Wirkung der beanspruchten Verbindung auf den durch Phenamin ausgelöston Effekt der Veränderung der Hypermotorik untersucht. Phenamin wurde den Mäusen intraperitoneal in Dosen von 3 und 5 mg/kg I0 Minuten nach der enteralen oder intraperitonealen Einführung der beanspruchten Verbindung und des Pyrazetams eingeführt. Die Tiere wurden in der Kammer des photoelektrischen Aktometers untergebracht. Die motorische Aktivität wurde nach der Zahl der Impulse innerhalb von 60 Minuten bestimmt. Die Angaben sind in der Tabelle 6 angeführt.

Ratten [5] = experiment: Thresholds of emotional reactivity and aggressiveness on electric pain stimulation, rats; settings: 100,0 mg/kg
Mäuse [6] = experiment: Motor and orientation activity in photoelectric actometer; settings: counted 60 min from 10 min after dosing
Text: Zur Bestimmung der sedativen Wirksamkeit wurde die motorische und Orientierungsaktivität und die motorische Fähigkeit in Versuchen an Mäusen und Ratten untersucht.
Den Versuchstieren wurden die beanspruchte Verbindung, γ -Amino- β -phenylbuttersäurehydrochlorid und Pyrazetam eingeführt. Als Kontrolle diente die physiologische Lösung (0,9%ige NaCl-Lösung). Die Untersuchungen wurden an I0 bis I2 erwachsenen Tieren (Mäuse, Ratten) durchgeführt.
Bei der Bestimmung der motorischen und Orientierungsaktivität wurde jede Maus in einer Einzelkamner des photoelektrischen Aktometers untergebracht. Die motorische und Orientierungsaktivität wurde nach der Zahl der Impulse bestimmt, die beim Berühren der Aktometerkontakte durch das Tier entstanden. Das Zählen der Im pulse wurde I0 min nach der intraperitonealen Einführung der genannten Verbindungen begonnen und dauerte innerhalb von 60 min. Die Angaben sind in der Tabelle I angeführt.

Mäuse [7] = experiment: Thresholds of emotional reactivity and aggressiveness on electric pain stimulation, mice
Text: Es wurde auch die emotionelle Aktivität und Aggressivität der Tiere auf dem Wege der elektrischen Schmerzreizung untersucht.
In einer Kammer von 20 x 20 x 25 cm Ausmass, deren Boden - ein Metallgitter aus Stangen darstellt, wurde ein Paar Tiere untergebracht (männliche Mäuse) und es wurde der Wechselstrom durchgelassen. Die Spannung wurde dosenartig auf 5 V solange erhöht, bis der Strom das Piepsen (die Schwelle der emotionellen Reaktivität) und die Schlägerei der Tiere (die Schwelle der Aggressivität) auslöste. Jede Spannungsgrösse wurde innerhalb von 5 sec zweimal in einem Zeitabstand von 20 bis 50 Sekunden aufrechterhalten. Die Kontrolle des Benehmens der Tiere begann man I0 Minuten nach der Einführung der oben erwähnten Verbindungen. Die Angaben sind in Tabellen 3, 4 angeführt.

Mäuse [8] = experiment: Hypoxia in hermetically closed vessel, survival; settings: closed vessel 80 cm³
Text: Nach der zweiten Methode wurden die Mäuse in einem hermetisch verschlossenen Gefäss von 80 cm³ Inhalt untergebracht, dabei wurde die Luft nicht abgesaugt, und es wurden keine CO₂-Sorptionsmittel zugegeben. Die Prüfverbindungen wurden I Stunde vor dem Beginn des Versuchs intraperitoneal eingeführt (siehe Tabelle II).

[9] = 100,0 mg/kg enteral 60 min before

Row | SMILES | Überlebensdauer (Mäuse [1]; [9]) | Überlebensdauer (Mäuse [1]; 200,0 mg/kg enteral 60 min before) | Überlebensdauer (Mäuse [2]; 100,0 mg/kg) | Überlebensdauer (Mäuse [2]; 200,0 mg/kg) | Schlafdauer (Ratten [3]) | Anzahl der Impulse im Aktometer innerhalb von 60 min (Mäuse [4]) | Spannung in V, die Schwelle der emotionnellen Reaktivität (Ratten [5]) | Überlebensdauer (Mäuse [1]; 500,0 mg/kg enteral 60 min before) | Überlebensdauer (Mäuse [1]; 1000,0 mg/kg enteral 60 min before) | Überlebensdauer (Mäuse [2]; 500,0 mg/kg) | Überlebensdauer (Mäuse [2]; 1000,0 mg/kg) | Anzahl der Impulse im Aktometer (Mäuse [6]; 100 mg/kg i.p.) | Anzahl der Impulse im Aktometer (Mäuse [6]; 500 mg/kg i.p.) | Anzahl der Impulse im Aktometer (Mäuse [6]; 1000 mg/kg i.p.) | Spannung in V, Schwelle der Agressivität (Mäuse [7]; 100 mg/kg) | Spannung in V, Schwelle der Agressivität (Mäuse [7]; 1000 mg/kg) | Spannung in V, Schwelle der emotionellen Reaktivität (Mäuse [7]; 1000 mg/kg) | Überlebensdauer (Mäuse [8]; 100,0 mg/kg i.p. 1 h before) | Überlebensdauer (Mäuse [8]; 500,0 mg/kg i.p. 1 h before) | Überlebensdauer (Mäuse [8]; 1000,0 mg/kg i.p. 1 h before)
1 | O=C(O)CCCO [Natriumoxybutyrat] | 7,1±2,3 min | 10,1±1,9 min | 28,4±2,8 min | 43,0±2,3 min | – | – | – | – | – | – | – | – | – | – | – | – | – | – | – | –
2 | NC(=O)CN1CCCC1=O [Pyrazetam, I-Karbamidomethylpyrrolidon-2] | 3,4±0,6 min | – | 26,7±2,2 min | – | 204,6±21 min | 1872±66 | 25,7±0,8 V | 5,5±1,8 min | 7,2±1,4 min | 34,2±3,6 min | 38,8±4,2 min | 342±18 | 338±24 | 288±28 | 28,4±2,4 V | 26,7±2,5 V | 20,7±2,4 V | 9,6±1,2 min | 11,8±2,1 min | 13,6±1,8 min
